# Counter-ions that a name gives are not always drawn.
# Experiments:
# [1] = target: T1, recombinant human B1 receptors (Homo sapiens, UniProt P46663); assay: Functional assay: cytosolic calcium ion concentration measured with plate reader fluorimeter in CHO-B1 cells, agonist LysDABK; assay type: cell-based; details: CHO-B1 cells, LysDABK at EC80, [Ca2+]i; read-out: B1 func.
# T1 construct: host or cells: CHO (CHO-B1)
# T1 sequence (P46663 1-353): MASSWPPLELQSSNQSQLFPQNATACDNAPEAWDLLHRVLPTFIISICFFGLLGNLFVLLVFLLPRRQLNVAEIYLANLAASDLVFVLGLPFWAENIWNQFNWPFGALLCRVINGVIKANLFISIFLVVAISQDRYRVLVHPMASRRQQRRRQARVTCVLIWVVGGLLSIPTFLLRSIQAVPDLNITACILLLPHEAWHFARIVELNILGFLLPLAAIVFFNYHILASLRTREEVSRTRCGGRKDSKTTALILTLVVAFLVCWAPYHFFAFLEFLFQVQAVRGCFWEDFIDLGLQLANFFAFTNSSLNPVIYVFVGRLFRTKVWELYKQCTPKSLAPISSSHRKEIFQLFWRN
# Procedure: Assessment of Antagonist Potency at B1 and B2 Receptors In Vitro by Measurement of Cytosolic Calcium Ion Concentration with a Plate Reader Fluorimeter in Cells Expressing Recombinant Human B1 or B2 Receptors
# Chinese hamster ovary (CHO) cells stably expressing recombinant human B1 (CHO-B1, Euroscreen) or B2 (CHO-B2, Perkin-Elmer) receptors were cultured in Dulbecco's Modified Eagle's Medium (DMEM) containing 10% Fetal Calf Serum (FCS), 100 U/ml penicillin, 0.1 mg/ml streptomycin, 0.25 μg/ml amphotericin B, 1% Minimum Essential Medium Eagle (MEM), non essential amino acid solution, 600 μg/ml G418, 1% pyruvate (for the B2 cell line). Cells were kept at 37° C. in a humidified incubator in an atmosphere of 5% CO2/95% air and were passaged 1:4 three times a week. Cells were plated at 1.5-2.5×10^4 cell/well on standard 96-well microplates, measurements of cytosolic calcium ion concentration ([Ca^2+]i) were carried out 1-2 days after cell plating.
# Measurements of [Ca^2+]i were carried out on CHO-B1 and CHO-B2 cells stably expressing human B1 and B2 receptors, respectively. Cells were grown in standard 96-well microplates and before the measurement were loaded with a fluorescent Ca^2+-sensitive dye, fluo-4/AM (2 μM): after removing the culture medium the dye was added to the cells (dissolved in assay buffer: 145 mM NaCl, 5 mM KCl, 2 mM MgCl2, 2 mM CaCl2, 10 mM HEPES, 20 mM D-glucose, 2 mM probenecid, 100 μl/well) and cells were incubated at 37° C. in a humidified incubator in an atmosphere of 5% CO2/95% air for 40-120 min. To stop dye loading cells were washed twice with assay buffer. After washing, various concentrations of the test compounds (diluted in extracellular medium from a DMSO stock solution, final DMSO concentration was <0.1%) or buffer were added to each well depending on the experimental setup. After incubation at 37° C. for 20-25 min. baseline and agonist-evoked changes of [Ca^2+]i were measured column by column with a plate reader fluorimeter (Fluoroskan Ascent, Labsystems). Excitation and detection of emission was carried out from the bottom of the plate. Filters used for Fluo-4: excitation filter—485 nm, emission filter—538 nm. The whole measurement process was performed at 37° C. and was controlled by custom software. Inhibitory potency of the test compounds was assessed by measuring the reduction in the agonist-evoked [Ca^2]i-elevation in the presence of different concentrations of the compounds. The agonists were LysDABK for CHO-B1, and bradykinin for CHO-B2 cells. Agonists were applied at an EC80 concentration, the EC80-values were derived from daily determined dose-response curves. Fluorescence data were expressed as ΔF/F (fluorescence change normalized to baseline). All treatments on a single plate were measured in multiple wells. Data from all wells with the same treatment were averaged and the average values were used for analysis. Inhibitory potency of a compound at a single concentration point was expressed as percent inhibition of the control agonist response. Sigmoidal concentration-inhibition curves were fitted to the data (derived from at least three independent experiments) and IC50-values were determined as the concentration that produces half of the maximal inhibition caused by the compound.
# [2] = target: T2, human recombinant bradykinin B1 receptor (Homo sapiens, UniProt P46663); assay: Human recombinant bradykinin B1 receptor binding; details: radioligand [3H]-[Des-Arg10] Kallidin, CHO cell membranes; read-out: B1 binding
# T2 construct: purchased Euroscreen ES-091; host or cells: CHO cells
# T2 sequence (P46663 1-353): T1 sequence (P46663 1-353)
# Procedure: 1. Human Recombinant Bradykinin B1 Receptor Binding
# Binding assays were carried out on human recombinant bradykinin) receptors (expressed in CHO cells) according to the Euroscreen Technical Data Sheet (Cat.No.:ES-091). 20 μg protein/tube was incubated with [3,4-prolyl-3,4-^3H(N)]-[Des-Arg^10] Kallidin as radioligand. Non specific binding was determined in the presence of 10 μM Lys-des-Arg^9-Bradykinin. The final incubation volume was 250 μl. Samples were incubated for 15 min. at 25° C. then were rapidly vacuum filtered through GF/B filters presoaked for at least 1 h in 0.5% PEI. Radioactivity was determined by liquid scintillation spectroscopy.
IC50 [1],Ki [2],Molecule
< 20 nM,< 20 nM,"O=C(NCCN1CCN(c2ccncc2)CC1)c1ccc(S(=O)(=O)Nc2ccccc2Oc2ccc(Cl)cc2Cl)cc1 [Example 1, 4-[2-(2,4-Dichloro-phenoxy)-phenylsulfamoyl]-N-{2-[4-pyridin-4-yl-piperazin-1-yl)-ethyl]-benzamide dihydrochloride]"
< 20 nM,< 20 nM,"O=C(NCCc1ccc(C2=NCCN2)cc1)c1ccc(S(=O)(=O)Nc2ccccc2Oc2ccc(Cl)cc2Cl)cc1 [Example 2, 4-[2-(2,4-Dichloro-phenoxy)-phenylsulfamoyl]-N-{2-[4-(4,5-dihydro-1H-imidazol-2-yl)-phenyl]-ethyl}-benzamide trifluoroacetate]"
< 20 nM,< 20 nM,"O=C(NCCCN1CCC(N2CCCCC2)CC1)c1ccc(S(=O)(=O)Nc2ccccc2Oc2ccc(Cl)cc2Cl)cc1 [Example 3, N-(3-[1,4′]Bipiperidinyl-1′-yl-propyl)-4-[2-(2,4-dichloro-phenoxy)-phenylsulfamoyl]-benzamide]"
< 20 nM,< 20 nM,"O=C(NCCc1ccc(C2=NCCN2)cc1)c1ccc(S(=O)(=O)Nc2ccccc2Oc2ccc(Cl)c(Cl)c2)cc1 [Example 4, 4-[2-(3,4-Dichloro-phenoxy)-phenylsulfamoyl]-N-{2-[4-(4,5-dihydro-1H-imidazol-2-yl)-phenyl]-ethyl}-benzamide]"
< 20 nM,< 20 nM,"O=C(NCCCN1CCC(N2CCCCC2)CC1)c1ccc(S(=O)(=O)Nc2ccccc2Oc2ccc(Cl)c(Cl)c2)cc1 [Example 5, N-(3-[1,4′]Bipiperidinyl-1′-yl-propyl)-4-[2-(3,4-dichloro-phenoxy)-phenylsulfamoyl]-benzamide]"
< 20 nM,< 20 nM,"O=C(NCCc1ccc(C2=NCCN2)cc1)c1ccc(S(=O)(=O)Nc2ccccc2Oc2ccc(Cl)cc2)cc1 [Example 6, 4-[2-(4-Chloro-phenoxy)-phenylsulfamoyl]-N-{2-[4-(4,5-dihydro-1H-imidazol-2-yl)-phenyl]-ethyl}-benzamide]"
< 20 nM,< 20 nM,"O=C(NCCc1ccc(C2=NCCN2)cc1)c1ccc(S(=O)(=O)Nc2ccccc2Oc2ccc(Br)cc2)cc1 [Example 7, 4-[2-(4-Bromo-phenoxy)-phenylsulfamoyl]-N-{2-[4-(4,5-dihydro-4H-imidazol-2-yl)-phenyl]-ethyl}-benzamide]"
20 to 100 nM,< 20 nM,"O=C(Nc1ccc(N2CCC(N3CCCCC3)CC2)cc1)c1ccc(S(=O)(=O)Nc2ccccc2Oc2ccc(Cl)cc2Cl)cc1 [Example 8, N-(4-[1,4′]Bipiperidinyl-1′-yl-phenyl)-4-[2-(2,4-dichloro-phenoxy)-phenylsulfamoyl]-benzamide]"
20 to 100 nM,< 20 nM,"O=C(N[C@H]1CC[C@H](CCN2CCCC2)CC1)c1ccc(S(=O)(=O)Nc2ccccc2Oc2ccc(Cl)cc2Cl)cc1 [Example 9, trans-4-[2-(2,4-Dichloro-phenoxy)-phenylsulfamoyl]-N-[4-(2-pyrrolidin-1-ylethyl)-cyclohexyl]-benzamide]"
20 to 100 nM,< 20 nM,"O=C(NCCN1CCN(c2ccncc2)CC1)c1cccc(S(=O)(=O)Nc2ccccc2Oc2ccc(Cl)cc2Cl)c1 [Example 10, 3-[2-(2,4-Dichloro-phenoxy)-phenylsulfamoyl]-N-[2-(4-pyridin-4-yl-piperazin-1-yl)-ethyl]-benzamide dihydrochloride]"
20 to 100 nM,20 to 100 nM,"O=C(NCCC1CCNCC1)c1ccc(S(=O)(=O)Nc2ccccc2Oc2ccc(Cl)cc2Cl)cc1 [Example 11, 4-[2-(2,4-Dichloro-phenoxy)-phenylsulfamoyl]-N-(2-piperidin-4-ylethyl)-benzamide trifluoroacetate]"
20 to 100 nM,20 to 100 nM,"O=C(NCCN1CCN(c2ccccn2)CC1)c1ccc(S(=O)(=O)Nc2ccccc2Oc2ccc(Cl)cc2Cl)cc1 [Example 20, 4-[2-(2,4-Dichloro-phenoxy)-phenylsulfamoyl]-N-[2-(4-pyridin-2-yl-piperazin-1-yl)-ethyl]-benzamide trifluoroacetate]"
< 20 nM,< 20 nM,"O=C(NCCc1ccc(C2=NCCN2)cc1)c1ccc(S(=O)(=O)Nc2ccccc2Oc2ccc(Br)cc2Cl)cc1 [Example 22, 4-[2-(4-Bromo-2-chloro-phenoxy)-phenylsulfamoyl]-N-{2-[4-(4,5-dihydro-1H-imidazol-2-yl)-phenyl]-ethyl}-benzamide]"
100 to 500 nM,20 to 100 nM,"N=C(N)NCc1ccc(CNC(=O)c2ccc(S(=O)(=O)Nc3ccccc3Oc3ccc(Br)cc3)cc2)cc1 [Example 23, 4-[2-(4-Bromo-phenoxy)-phenylsulfamoyl]-N-(4-guanidinomethyl-benzyl)-benzamide hydrochloride]"
< 20 nM,< 20 nM,"CN1CCC(N2CCC(CCNC(=O)c3ccc(S(=O)(=O)Nc4ccccc4Oc4ccc(Cl)cc4Cl)cc3)CC2)CC1 [Example 24, 4-[2-(2,4-Dichloro-phenoxy)-phenylsulfamoyl]-N-[2-(1-methyl-[1,4′]bipiperidinyl-4-yl)-ethyl]-benzamide]"
< 20 nM,< 20 nM,"CC(CNC(=O)c1ccc(S(=O)(=O)Nc2ccccc2Oc2ccc(Cl)cc2Cl)cc1)N1CCN(c2ccncc2)CC1 (stereo not drawn) [Example 28, 4-[2-(2,4-Dichloro-phenoxy)-phenylsulfamoyl]-N-{2-[4-pyridin-4-yl-piperazin-1-yl)-propyl]-benzamide]"
20 to 100 nM,20 to 100 nM,"O=C(NCCNC(=O)C1CCNCC1)c1ccc(S(=O)(=O)Nc2ccccc2Oc2ccc(Cl)cc2Cl)cc1 [Example 29, Piperidine-4-carboxylic acid (2-{4-[2-(2,4-dichloro-phenoxy)-phenylsulfamoyl]-benzoylamino}-ethyl)-amide hydrochloride]"
20 to 100 nM,20 to 100 nM,"O=C(NCCCC1CCNCC1)c1ccc(S(=O)(=O)Nc2ccccc2Oc2ccc(Br)cc2Cl)cc1 [Example 30, 4-[2-(4-Bromo-2-chloro-phenoxy)-phenylsulfamoyl]-N-(3-piperidin-4-yl-propyl)-benzamide hydrochloride]"
20 to 100 nM,20 to 100 nM,"O=C(CCNC(=O)c1ccc(S(=O)(=O)Nc2ccccc2Oc2ccc(Cl)cc2Cl)cc1)NC1CCNCC1 [Example 33, 4-[2-(2,4-Dichloro-phenoxy)-phenylsulfamoyl]-N-[2-(piperidin-4-ylcarbamoyl)-ethyl]-benzamide acetate]"
20 to 100 nM,< 20 nM,"Cc1cccc(N2CCN(CCNC(=O)c3ccc(S(=O)(=O)Nc4ccccc4Oc4ccc(Cl)cc4Cl)cc3)CC2)n1 [Example 36, 4-[2-(2,4-Dichloro-phenoxy)-phenylsulfamoyl]-N-{2-[4-(6-methyl-pyridin-2-yl)-piperazin-1-yl]-ethyl}-benzamide]"

Molecule,IC50 [1],Ki [2]
"4-[1-(3,4-Dichloro-phenoxy)-phenylsulfamoyl]-N-[3-(4-pyridin-4-yl-piperazin-1-yl)-propyl]-benzamide [Example 66]",< 20 nM,< 20 nM

# Reference: patent US20100075978A1, “SULFONAMIDE DERIVATIVES AS BRADYKININ ANTAGONISTS” (priority 2006, published 2010)
